Tests used:
human mPGES-1 = target: T1, human mPGES-1 (Homo sapiens, UniProt O14684); assay: in vitro inhibition of human mPGES-1; format: biochemical; details: Table 2
T1 sequence (O14684 1-152): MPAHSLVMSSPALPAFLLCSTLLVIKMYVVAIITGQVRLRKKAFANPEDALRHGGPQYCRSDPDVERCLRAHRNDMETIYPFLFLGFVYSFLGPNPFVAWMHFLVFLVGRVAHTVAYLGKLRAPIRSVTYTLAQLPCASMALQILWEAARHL

[1] = tested on: COX-1/2 (mixed COX-1 and COX-2); assay: inhibition of mixed COX-1 and COX-2; format: biochemical; details: summary

| SMILES | activity against human mPGES-1 in words (human mPGES-1) | inhibition against COX-1/2 in words [1] |
| --- | --- | --- |
| CCOc1ccc(-c2nn(-c3ccc(Cl)cc3)cc2/C=C(\C#N)C(N)=O)cc1 [13c] | not very active |  |
| CCCCCCOc1ccc(-c2nn(-c3ccc(Cl)cc3)cc2/C=C(\C#N)C(=O)O)cc1 [14a] | submicromolar potency |  |
| CCCCCCOc1ccc(-c2nn(-c3ccc(Cl)cc3)cc2C=C(C#N)C#N)cc1 [14b] | not very active |  |
| CCOc1ccc(-c2nn(-c3ccc(Cl)cc3)cc2/C=C(\C#N)C(=O)O)cc1 [13a] | submicromolar potency |  |
| CCOc1ccc(-c2nn(-c3ccc(Cl)cc3)cc2C=C(C#N)C#N)cc1 [13b] | not very active |  |
| CCCCCCOc1ccc(-c2nn(-c3ccc(Cl)cc3)cc2/C=C(\C#N)C(N)=O)cc1 [14c] | not very active |  |
| CCCCCCOc1ccc(-c2nn(-c3ccc(Cl)cc3)cc2/C=C2/SC(=O)N(CC(=O)O)C2=O)cc1 [14f] |  | without significant inhibition |
